Data on 21 compounds can be found in ChEMBL document CHEMBL2202975, “Inhibition of monoamine oxidase by 8-[(phenylethyl)sulfanyl]caffeine analogues” (Bioorg Med Chem, 2012).

Broadly, the IC50 is the concentration that gives 50% inhibition. A word on the Ki: it is the equilibrium dissociation constant of an inhibitor or competing ligand from its target. A word on the logP: it is the decadic logarithm of the partition coefficient of the neutral form, usually between octanol and water.

Series [1] has as its target T1, Amine oxidase [flavin-containing] A (Homo sapiens, UniProt P21397).
T1 sequence (P21397 whole entry): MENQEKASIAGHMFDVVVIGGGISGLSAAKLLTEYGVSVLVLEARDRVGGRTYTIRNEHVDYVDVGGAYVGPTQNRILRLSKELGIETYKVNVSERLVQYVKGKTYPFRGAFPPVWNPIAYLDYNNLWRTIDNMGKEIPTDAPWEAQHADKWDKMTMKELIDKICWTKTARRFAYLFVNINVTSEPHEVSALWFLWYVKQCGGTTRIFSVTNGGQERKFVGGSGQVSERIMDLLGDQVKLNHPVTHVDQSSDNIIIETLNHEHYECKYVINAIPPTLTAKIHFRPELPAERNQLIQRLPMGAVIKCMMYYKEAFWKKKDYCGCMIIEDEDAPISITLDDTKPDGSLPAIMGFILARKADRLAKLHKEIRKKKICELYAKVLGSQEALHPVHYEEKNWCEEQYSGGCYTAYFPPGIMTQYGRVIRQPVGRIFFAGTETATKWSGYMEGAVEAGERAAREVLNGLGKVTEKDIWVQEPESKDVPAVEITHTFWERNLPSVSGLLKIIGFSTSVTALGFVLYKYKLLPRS
The series is described as follows: Inhibition of human recombinant MAO-A expressed in insect cell microsome assessed as 4-hydroxyquinoline formation using kynuramine as substrate after 20 mins by fluorescence spectrophotometry. The series is classed as microsomes.

For series [2], the target named is T2, Amine oxidase [flavin-containing] B (Homo sapiens, UniProt P27338).
T2 sequence (P27338 whole entry): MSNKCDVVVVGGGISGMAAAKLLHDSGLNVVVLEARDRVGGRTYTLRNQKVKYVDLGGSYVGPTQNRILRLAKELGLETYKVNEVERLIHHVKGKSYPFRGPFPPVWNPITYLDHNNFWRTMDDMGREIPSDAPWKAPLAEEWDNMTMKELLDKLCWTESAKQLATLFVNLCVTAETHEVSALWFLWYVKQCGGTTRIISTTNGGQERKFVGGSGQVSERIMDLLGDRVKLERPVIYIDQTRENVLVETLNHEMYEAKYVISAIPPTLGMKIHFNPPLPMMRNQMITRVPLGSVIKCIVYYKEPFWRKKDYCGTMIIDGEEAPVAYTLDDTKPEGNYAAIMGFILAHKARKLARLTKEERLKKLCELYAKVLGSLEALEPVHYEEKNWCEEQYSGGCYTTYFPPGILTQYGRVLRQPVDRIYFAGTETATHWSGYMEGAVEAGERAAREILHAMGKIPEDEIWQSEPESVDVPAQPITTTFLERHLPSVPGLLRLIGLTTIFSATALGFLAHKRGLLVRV
Description: Inhibition of human recombinant MAO-B expressed in insect cell microsome assessed as 4-hydroxyquinoline formation using kynuramine as substrate after 20 mins by fluorescence spectrophotometry

For another series, the species on record is Homo sapiens. Put plainly: Selectivity index, ratio of IC50 for human recombinant MAO-A to IC50 for human recombinant MAO-B.
Series [3] addresses T1, Amine oxidase [flavin-containing] A. Put plainly: Reversible inhibition of human recombinant MAO-A expressed in insect cell microsome assessed as 4-hydroxyquinoline formation using kynuramine as substrate preincubated for 15 to 60 mins at 2 times IC50 measured after 15 mins following twofold compound dilution with addition of substrate by fluorescence spectrophotometry. The series is classed as microsomes. Conditions: 0.25 h; call rule not given here.

Series [4] addresses T2, Amine oxidase [flavin-containing] B. Put plainly: Reversible inhibition of human recombinant MAO-B expressed in insect cell microsome assessed as 4-hydroxyquinoline formation using kynuramine as substrate preincubated for 15 to 60 mins at 2 times IC50 measured after 15 mins following twofold compound dilution with addition of substrate by fluorescence spectrophotometry. The series is classed as microsomes. As to conditions: 0.25 h.

The target is the same in series [5]. Put plainly: Time dependent inhibition of human recombinant MAO-B expressed in insect cell microsome assessed as 4-hydroxyquinoline formation using kynuramine as substrate preincubated for 15 to 60 mins at 2 times IC50 measured after 15 mins following twofold compound dilution with addition of substrate by fluorescence spectrophotometry. The series is classed as microsomes. As to conditions: 0.25 h.

The target is the same in series [6]. The series is described as follows: Reversible inhibition of human recombinant MAO-B expressed in insect cell microsome assessed as enzyme activity recovery using kynuramine as substrate preincubated for 30 mins at 100xIC50 measured after 20 mins following 100-fold compound dilution with addition of substrate by fluorescence spectrophotometry. The format is microsomes. The arrangement: scale not given: the % may be the effect or the level left.

For series [7] the target is unchanged. The series is described as follows: Competitive inhibition of human recombinant MAO-B expressed in insect cell microsome using kynuramine as substrate by Lineweaver-Burk plot analysis. The series is classed as microsomes.
Series [8] has the same target. The series is described as follows: Competitive inhibition of human recombinant MAO-B expressed in insect cell microsome using kynuramine as substrate by Morrison equation analysis. The series is classed as microsomes.
A short description of series [9]: Octanol-water partition coefficient, log P of the compound by shake flask method. The series is classed as physicochemical.
Series [10] has as its target T1, Amine oxidase [flavin-containing] A. The series is described as follows: Inhibition of human recombinant MAO-A expressed in insect cell microsome assessed as 4-hydroxyquinoline formation using kynuramine as substrate at 100 uM after 20 mins by fluorescence spectrophotometry. The series is classed as microsomes.

For `Cn1c(=O)c2c(nc([S+]([O-])CCc3ccc(Br)cc3)n2C)n(C)c1=O` (stereo unspecified), the IC50 in series [1] amounted to 57300 nM; in series [2], 471 nM. Besides, the Ratio IC50 in the series filed under Homo sapiens turned out to be 122.
For `COc1cccc(CCSc2nc3c(c(=O)n(C)c(=O)n3C)n2C)c1`, in that order: 48100 nM, 125 nM and 385.
`Cn1c(=O)c2c(nc([S+]([O-])Cc3ccccc3)n2C)n(C)c1=O` (stereo unspecified): the IC50 in [1] is 250000 nM; in [2] it was 131000 nM. The Ratio IC50 in the series filed under Homo sapiens came to 2.
On to `Cn1c(=O)c2c(nc(SCCc3ccc(Cl)cc3)n2C)n(C)c1=O`, for which the “inhibition (INH)” value in series [3], in series [4] and in series [5] was “Active” in each case. The results for the IC50 in [1] and in series [2] were 8460 nM and 20 nM, respectively. Also, the Ratio IC50 in the series listed under Homo sapiens is 423. Besides, in series [6], the Activity amounted to 26%. In addition, the figures for the Ki in series [7] and in series [8] were 13 nM and 9.8 nM, respectively.
With `Cc1ccc(CCSc2nc3c(c(=O)n(C)c(=O)n3C)n2C)cc1`, the half-maximal inhibitory concentration (IC50) in series [1] is 125000 nM; in series [2], 72 nM. In the series listed under Homo sapiens, the Ratio IC50 is 1740. The compound also registered a log partition coefficient (logP) in [9] of 3.15.
On to `Cc1cccc(CCSc2nc3c(c(=O)n(C)c(=O)n3C)n2C)c1`, for which the IC50 in series [1] was 12000 nM; in series [2], 51 nM. Further, in the series filed under Homo sapiens, the Ratio IC50 is 235.
For the compound `Cn1c(=O)c2c(nc(SCCCc3cccc(Cl)c3)n2C)n(C)c1=O`, the half-inhibitory concentration (IC50) in series [1] was 3530 nM; in [2] it was 62 nM. Moreover, in the series listed under Homo sapiens, the Ratio IC50 stood at 57. Moreover, in [9], the log partition coefficient (logP) came out at 3.76.
In the case of `Cn1c(=O)c2c(nc([S+]([O-])CCc3ccc(Cl)cc3)n2C)n(C)c1=O` (stereo unspecified), the IC50 in series [1] amounted to 203000 nM; in [2] it was 781 nM. Besides, the Ratio IC50 in the series listed under Homo sapiens was determined as 260.
On to `Cn1c(=O)c2c(nc(SCCCc3ccc(Cl)cc3)n2C)n(C)c1=O`, for which the IC50 is 708 nM in series [1] and 61 nM in series [2]. For the same compound, in the series filed under Homo sapiens, the Ratio IC50 worked out at 12. The compound further registered a lipophilicity (logP) in series [9] of 3.59.
With `Cn1c(=O)c2c(nc([S+]([O-])CCc3ccc(F)cc3)n2C)n(C)c1=O` (stereo unspecified), the IC50 turned out to be 239000 nM in series [1] and 3500 nM in series [2]. In the series filed under Homo sapiens, the Ratio IC50 is 68.
On to `Cn1c(=O)c2c(nc(SCCc3cccc(C(F)(F)F)c3)n2C)n(C)c1=O`, for which the IC50 in [1] was found to be 141000 nM; in series [2], 17 nM. For the same compound, in the series listed under Homo sapiens, the Ratio IC50 came out at 8290. In series [6], the Activity came to 22%. In addition, the logP in series [9] was found to be 3.14.
Take `Cn1c(=O)c2c(nc(SCCc3ccc(Br)cc3)n2C)n(C)c1=O`: the IC50 in [1] turned out to be 108000 nM; in series [2] it was 19 nM. Further, the Ratio IC50 in the series filed under Homo sapiens amounted to 5680. In addition, the logP in series [9] came out at 2.98.
On to `Cn1c(=O)c2c(nc(SCc3cccc(Cl)c3)n2C)n(C)c1=O`, for which the IC50 stood at 6430 nM in series [1] and 227 nM in series [2]. Further, in the series filed under Homo sapiens, the Ratio IC50 came to 28.
For `Cn1c(=O)c2c(nc(SCCc3ccc(F)cc3)n2C)n(C)c1=O`, in that order: 14700 nM, 71 nM and 207.
On to `Cn1c(=O)c2c(nc(SCCc3cccc(Br)c3)n2C)n(C)c1=O`, for which the half-inhibitory concentration (IC50) in series [1] is 5700 nM; in series [2], 40 nM. Also, in the series listed under Homo sapiens, the Ratio IC50 was 143.
Consider `Cn1c(=O)c2c(nc(SCCCc3ccccc3)n2C)n(C)c1=O`, for which the IC50 in [1] turned out to be 6480 nM. The compound further had a log partition coefficient (logP) in series [9] of 3.3.
`Cn1c(=O)c2c(nc(SCCc3cccc(Cl)c3)n2C)n(C)c1=O`: the half-inhibitory concentration (IC50) worked out at 5660 nM in series [1] and 43 nM in series [2]. The Ratio IC50 in the series filed under Homo sapiens turned out to be 132.
As to `COc1ccc(CCSc2nc3c(c(=O)n(C)c(=O)n3C)n2C)cc1`, the 50% inhibitory concentration (IC50) stood at 168000 nM in [1] and 23 nM in series [2]. Besides, in the series listed under Homo sapiens, the Ratio IC50 came out at 7300. In [9], this compound showed a logP of 2.55.
`Cn1c(=O)c2c(nc(SCCc3ccc(C(F)(F)F)cc3)n2C)n(C)c1=O`: the “inhibition (INH)” value in series [10] is recorded as “Not Active”. Besides, the IC50 in series [2] was 19 nM. Moreover, the lipophilicity (logP) in [9] turned out to be 3.21.
On to `Cn1c(=O)c2c(nc(SCc3cccc(Br)c3)n2C)n(C)c1=O`, for which the results for the half-inhibitory concentration (IC50) in series [1] and in series [2] were 37900 nM and 199 nM, respectively. Besides, the Ratio IC50 in the series filed under Homo sapiens was found to be 190.
Regarding `Cn1c(=O)c2c(nc(SCCc3ccccc3)n2C)n(C)c1=O`, the results for the IC50 in series [1] and in series [2] were 18700 nM and 271 nM, respectively. Besides, the Ratio IC50 in the series filed under Homo sapiens was found to be 69. The compound further had a logP in [9] of 3.22.
